Data from patent US8822517B2, “Arylosulfonamides for the treatment of CNS diseases” (Adamed SP. Z O.O., priority 2010, dated 2014).

Tests used:
dopaminergic D3 receptor [1] = target: T1, dopaminergic D3 receptor (Homo sapiens, UniProt P35462); experiment: Binding assay D3 (h), [3H]methyl-spiperone, CHO cells; parameters: expressed in transfected cells; host or cells: CHO cells; details: read-out: D3 [%]
How it was run: (§1)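 Total binding and binding under an excess of unlabelled competitor were both measured, the difference giving specific binding. Counts came from scintillation detection, and compound concentration was 1×10^−6 M.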

dopaminergic D2 receptor [2] = target: T2, dopaminergic D2 receptor (Homo sapiens, UniProt P14416); experiment: Binding assay D2S (h), [3H]methyl-spiperone, HEK-293 cells; parameters: expressed in transfected cells; host or cells: HEK-293 cells; details: read-out: D2 [%]
How it was run: as §1
Target sequence in this assay (P14416 1-414 isoform P14416-2): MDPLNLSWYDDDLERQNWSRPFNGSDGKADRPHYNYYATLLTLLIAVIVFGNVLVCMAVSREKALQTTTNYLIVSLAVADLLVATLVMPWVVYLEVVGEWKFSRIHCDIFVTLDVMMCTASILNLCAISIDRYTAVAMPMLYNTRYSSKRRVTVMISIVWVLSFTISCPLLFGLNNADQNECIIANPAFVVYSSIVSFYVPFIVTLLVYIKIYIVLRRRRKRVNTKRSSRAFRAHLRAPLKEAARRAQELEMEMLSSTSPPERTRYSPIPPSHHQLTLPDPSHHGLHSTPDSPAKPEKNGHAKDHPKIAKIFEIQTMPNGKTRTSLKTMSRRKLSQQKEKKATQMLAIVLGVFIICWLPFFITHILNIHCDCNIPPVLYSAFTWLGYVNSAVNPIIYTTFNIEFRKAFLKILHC

[3] = target: T3, serotoninergic 5-HT7 receptor (Homo sapiens, UniProt P34969); experiment: Cellular functional assay, serotoninergic 5-HT7 receptor (agonism/antagonism); assay type: cell-based; details: for activation at 1 µM: agonist effect, percent of control specific agonist response, compounds tested at 1×10^−6M, read-out: 5-HT7-ag [%]; for inhibition at 1 µM: read-out: 5-HT7-antag. [%]
T3 sequence (P34969 whole entry): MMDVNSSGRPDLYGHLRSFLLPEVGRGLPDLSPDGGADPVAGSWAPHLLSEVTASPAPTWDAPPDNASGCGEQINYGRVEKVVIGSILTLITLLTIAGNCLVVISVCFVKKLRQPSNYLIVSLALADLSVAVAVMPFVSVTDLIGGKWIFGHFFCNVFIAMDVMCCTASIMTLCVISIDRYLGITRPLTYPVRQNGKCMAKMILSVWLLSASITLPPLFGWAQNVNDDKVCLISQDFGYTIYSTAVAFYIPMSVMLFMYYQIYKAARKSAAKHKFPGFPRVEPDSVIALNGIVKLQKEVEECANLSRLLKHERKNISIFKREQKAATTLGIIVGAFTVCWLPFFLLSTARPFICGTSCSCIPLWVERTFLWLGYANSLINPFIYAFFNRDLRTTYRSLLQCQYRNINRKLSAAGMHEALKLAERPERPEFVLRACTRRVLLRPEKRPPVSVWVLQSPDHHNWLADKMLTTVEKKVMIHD
Experimental: (§2) The compounds were tested at the concentration of 1×10^−6M.
(§3) In the Tables ag refers to agonism, and antag to antagonism).

sigma σ receptor = experiment: Binding assay σ (non-selective), [3H]DTG, rat cerebral cortex; details: percent inhibition of control specific binding; compounds tested at 1×10^−6 M
How it was run: as §1

muscarinic M3 receptor = target: T4, muscarinic M3 receptor (Homo sapiens, UniProt P20309); experiment: Binding assay M3 (h), [3H]4-DAMP, CHO cells; details: read-out: M3 [%]
T4 construct: expressed in transfected cells; host or cells: CHO cells
T4 sequence (P20309 whole entry): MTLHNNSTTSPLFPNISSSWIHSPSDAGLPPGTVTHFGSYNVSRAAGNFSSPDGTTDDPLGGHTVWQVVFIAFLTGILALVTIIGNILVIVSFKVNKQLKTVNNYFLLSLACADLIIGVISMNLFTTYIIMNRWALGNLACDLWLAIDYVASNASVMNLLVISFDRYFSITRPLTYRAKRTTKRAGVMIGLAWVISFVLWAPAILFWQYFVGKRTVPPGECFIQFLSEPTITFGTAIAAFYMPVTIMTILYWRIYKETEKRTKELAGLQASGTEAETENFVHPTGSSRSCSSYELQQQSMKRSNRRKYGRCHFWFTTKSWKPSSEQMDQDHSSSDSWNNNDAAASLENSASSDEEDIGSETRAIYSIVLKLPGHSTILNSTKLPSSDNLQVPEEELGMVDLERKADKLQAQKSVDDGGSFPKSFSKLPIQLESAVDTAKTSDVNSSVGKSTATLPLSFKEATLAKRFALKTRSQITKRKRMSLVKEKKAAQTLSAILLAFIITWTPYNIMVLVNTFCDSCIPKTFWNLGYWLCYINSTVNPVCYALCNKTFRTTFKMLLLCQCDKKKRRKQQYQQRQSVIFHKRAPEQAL
How it was run: as §1

[4] = target: T5, serotonine transporter (SERT) receptor (Homo sapiens, UniProt P31645); experiment: Binding assay SERT (h), [3H]imipramine, CHO cells; details: read-out: SERT [%]
T5 construct: expressed in transfected cells; host or cells: CHO cells
T5 sequence (P31645 whole entry): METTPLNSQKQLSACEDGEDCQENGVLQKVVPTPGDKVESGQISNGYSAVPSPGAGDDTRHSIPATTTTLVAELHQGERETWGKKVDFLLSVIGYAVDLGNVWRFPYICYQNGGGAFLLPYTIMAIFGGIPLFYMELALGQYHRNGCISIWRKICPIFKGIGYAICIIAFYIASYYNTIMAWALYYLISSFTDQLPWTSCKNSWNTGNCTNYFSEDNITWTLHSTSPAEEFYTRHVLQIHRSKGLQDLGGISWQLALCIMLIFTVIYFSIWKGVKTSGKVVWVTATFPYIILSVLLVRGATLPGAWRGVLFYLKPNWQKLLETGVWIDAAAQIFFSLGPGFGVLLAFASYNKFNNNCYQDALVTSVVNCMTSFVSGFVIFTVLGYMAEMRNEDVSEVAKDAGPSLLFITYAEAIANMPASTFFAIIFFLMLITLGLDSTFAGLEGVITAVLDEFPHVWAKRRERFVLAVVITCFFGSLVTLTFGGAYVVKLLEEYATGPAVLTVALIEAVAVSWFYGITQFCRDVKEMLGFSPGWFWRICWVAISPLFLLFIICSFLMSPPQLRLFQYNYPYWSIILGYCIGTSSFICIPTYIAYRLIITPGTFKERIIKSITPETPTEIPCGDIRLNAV
How it was run: as §1

[5] = target: T6, histaminergic H1 receptor (Homo sapiens, UniProt P35367); experiment: Cellular functional assay, histaminergic H1 receptor (agonism/antagonism); assay type: cell-based; details: for activation at 1 µM: agonist effect, percent of control specific agonist response, compounds tested at 1×10^−6M, read-out: H1 -ag [%]; for inhibition at 1 µM: read-out: H1 -antag. [%]
T6 sequence (P35367 whole entry): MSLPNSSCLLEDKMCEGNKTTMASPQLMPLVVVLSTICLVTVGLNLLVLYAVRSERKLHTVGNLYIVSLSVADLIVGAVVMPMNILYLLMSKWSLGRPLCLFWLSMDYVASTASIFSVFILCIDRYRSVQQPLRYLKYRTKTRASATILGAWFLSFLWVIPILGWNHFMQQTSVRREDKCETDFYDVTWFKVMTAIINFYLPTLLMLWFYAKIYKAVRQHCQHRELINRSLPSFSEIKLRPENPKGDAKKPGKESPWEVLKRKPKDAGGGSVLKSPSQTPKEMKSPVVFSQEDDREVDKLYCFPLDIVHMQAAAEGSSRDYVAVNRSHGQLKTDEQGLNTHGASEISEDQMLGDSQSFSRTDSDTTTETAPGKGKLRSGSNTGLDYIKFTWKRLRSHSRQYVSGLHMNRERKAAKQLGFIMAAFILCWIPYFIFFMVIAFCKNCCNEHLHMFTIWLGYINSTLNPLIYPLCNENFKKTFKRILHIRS
Experimental: as §2, §3

dopaminergic D2 receptor [6] = target: T2, dopaminergic D2 receptor; experiment: Cellular functional assay, dopaminergic D2 receptor (agonism/antagonism); assay type: cell-based; details: HEK293; for activation at 1 µM: agonist effect, percent of control specific agonist response (3 μM dopamine for control), 1×10^−6 M, D2S (h), HEK-293 cells, read-out: D2-ag [%]; for inhibition at 1 µM: read-out: D2-antag. [%]
Experimental: as §2, §3
Target sequence in this assay (P14416 whole entry): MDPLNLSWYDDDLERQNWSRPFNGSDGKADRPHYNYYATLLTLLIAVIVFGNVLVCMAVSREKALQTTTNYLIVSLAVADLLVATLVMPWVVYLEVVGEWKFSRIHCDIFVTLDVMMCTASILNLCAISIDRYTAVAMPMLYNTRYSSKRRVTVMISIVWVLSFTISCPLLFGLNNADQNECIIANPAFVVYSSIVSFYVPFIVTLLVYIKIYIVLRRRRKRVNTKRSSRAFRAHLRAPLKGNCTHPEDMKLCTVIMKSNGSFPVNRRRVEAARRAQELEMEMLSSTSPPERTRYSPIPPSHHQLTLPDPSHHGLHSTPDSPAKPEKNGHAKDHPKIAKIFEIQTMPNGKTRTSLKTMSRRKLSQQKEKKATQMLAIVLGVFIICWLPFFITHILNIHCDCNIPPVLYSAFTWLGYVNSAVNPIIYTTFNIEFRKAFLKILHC

adrenergic α2C receptor [7] = target: T7, adrenergic α2C receptor (Homo sapiens, UniProt P18825); experiment: Cellular functional assay, adrenergic α2C receptor (agonism/antagonism); assay type: cell-based; details: for activation at 1 µM: agonist effect, percent of control specific agonist response, compounds tested at 1×10^−6M, read-out: α2C −ag [%]; for inhibition at 1 µM: read-out: α2C −antag. [%]
T7 sequence (P18825 1-462): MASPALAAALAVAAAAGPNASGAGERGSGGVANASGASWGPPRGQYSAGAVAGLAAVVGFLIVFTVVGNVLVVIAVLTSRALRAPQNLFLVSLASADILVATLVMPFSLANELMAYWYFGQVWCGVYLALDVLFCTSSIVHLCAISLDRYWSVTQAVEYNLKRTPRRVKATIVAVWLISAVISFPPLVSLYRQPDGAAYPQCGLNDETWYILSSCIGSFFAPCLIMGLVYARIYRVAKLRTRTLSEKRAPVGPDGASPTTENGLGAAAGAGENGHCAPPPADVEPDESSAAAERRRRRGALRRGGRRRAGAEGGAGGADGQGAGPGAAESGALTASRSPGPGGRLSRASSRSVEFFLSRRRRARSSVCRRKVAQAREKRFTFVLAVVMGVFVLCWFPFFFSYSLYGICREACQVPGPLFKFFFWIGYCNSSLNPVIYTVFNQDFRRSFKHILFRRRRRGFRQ
Experimental: as §2, §3

adrenergic α1 receptor = experiment: Binding assay α1 (non-selective), [3H]prazosin, rat cerebral cortex; details: percent inhibition of control specific binding; compounds tested at 1×10^−6 M
How it was run: as §1

[8] = target: T6, histaminergic H1 receptor; experiment: Binding assay H1 (h), [3H]pyrilamine, HEK-293 cells; parameters: expressed in transfected cells; host or cells: HEK-293 cells; details: read-out: H1 [%]
How it was run: as §1

adrenergic α2C receptor [9] = target: T7, adrenergic α2C receptor; experiment: Binding assay α2C (h), [3H]RX 821002, CHO cells; parameters: expressed in transfected cells; host or cells: CHO cells; details: read-out: α2C [%]
How it was run: as §1

[10] = target: T3, serotoninergic 5-HT7 receptor; experiment: Binding assay 5-HT7 (h), [3H]LSD, CHO cells; parameters: expressed in transfected cells; host or cells: CHO cells; details: read-out: 5-HT7
How it was run: as §1

dopaminergic D3 receptor [11] = target: T1, dopaminergic D3 receptor; experiment: Cellular functional assay, dopaminergic D3 receptor (agonism/antagonism); assay type: cell-based; details: for inhibition at 1 µM: CHO, read-out: D3-antag. [%]; for activation at 1 µM: agonist effect, percent of control specific agonist response (300 nM dopamine for control), 1×10^−6 M, D3 (h), CHO cells, read-out: D3-ag [%]
Experimental: as §2, §3

[12] = target: T8, serotoninergic 5-HT6 receptor (Homo sapiens, UniProt P50406); experiment: Cellular functional assay, serotoninergic 5-HT6 receptor (agonism/antagonism); assay type: cell-based; details: for activation at 1 µM: agonist effect, percent of control specific agonist response, compounds tested at 1×10^−6M, read-out: 5-HT6-ag [%]; for inhibition at 1 µM: read-out: 5-HT6-antag. [%]
T8 sequence (P50406 whole entry): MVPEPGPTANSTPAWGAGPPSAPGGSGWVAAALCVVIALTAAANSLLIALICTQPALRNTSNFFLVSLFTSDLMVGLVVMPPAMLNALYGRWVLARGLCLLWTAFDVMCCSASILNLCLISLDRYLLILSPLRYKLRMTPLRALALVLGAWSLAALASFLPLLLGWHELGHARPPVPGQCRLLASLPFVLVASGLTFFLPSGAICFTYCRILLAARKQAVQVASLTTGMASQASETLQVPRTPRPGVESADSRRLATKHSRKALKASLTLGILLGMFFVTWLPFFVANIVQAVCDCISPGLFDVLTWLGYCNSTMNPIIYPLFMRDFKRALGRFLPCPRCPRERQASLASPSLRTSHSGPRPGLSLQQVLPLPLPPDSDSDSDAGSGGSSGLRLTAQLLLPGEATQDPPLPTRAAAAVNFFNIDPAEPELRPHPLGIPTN
Experimental: as §2, §3

[13] = target: serotoninergic 5-HT2A receptor (Homo sapiens, UniProt P28223); experiment: Cellular functional assay, serotoninergic 5-HT2A receptor (agonism/antagonism); assay type: cell-based; details: for activation at 1 µM: read-out: 5-HT2A -ag [%]; for inhibition at 1 µM: read-out: 5-HT2A -antag [%]
Sequence of serotoninergic 5-HT2A receptor (P28223 whole entry): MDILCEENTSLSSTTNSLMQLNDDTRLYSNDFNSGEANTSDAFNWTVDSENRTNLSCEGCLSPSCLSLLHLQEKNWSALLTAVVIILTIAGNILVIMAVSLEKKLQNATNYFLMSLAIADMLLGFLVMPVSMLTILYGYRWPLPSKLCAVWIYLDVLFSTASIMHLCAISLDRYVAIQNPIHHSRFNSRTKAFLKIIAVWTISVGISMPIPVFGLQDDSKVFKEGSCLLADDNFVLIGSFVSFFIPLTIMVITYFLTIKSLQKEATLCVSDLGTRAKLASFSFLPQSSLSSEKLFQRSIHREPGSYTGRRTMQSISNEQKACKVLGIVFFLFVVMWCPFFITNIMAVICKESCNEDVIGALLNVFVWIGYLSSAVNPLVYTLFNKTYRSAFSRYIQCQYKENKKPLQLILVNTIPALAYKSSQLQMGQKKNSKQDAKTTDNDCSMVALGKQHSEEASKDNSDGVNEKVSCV
How it was run: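 Human receptors tested in cell-based functional format for both agonist and antagonist modes. Single compound concentration of 1×10^−6M.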

[14] = target: T8, serotoninergic 5-HT6 receptor; experiment: Binding assay 5-HT6 (h), [3H]LSD, CHO cells; parameters: expressed in transfected cells; host or cells: CHO cells; details: read-out: 5-HT6
How it was run: as §1

T1 sequence (P35462 whole entry): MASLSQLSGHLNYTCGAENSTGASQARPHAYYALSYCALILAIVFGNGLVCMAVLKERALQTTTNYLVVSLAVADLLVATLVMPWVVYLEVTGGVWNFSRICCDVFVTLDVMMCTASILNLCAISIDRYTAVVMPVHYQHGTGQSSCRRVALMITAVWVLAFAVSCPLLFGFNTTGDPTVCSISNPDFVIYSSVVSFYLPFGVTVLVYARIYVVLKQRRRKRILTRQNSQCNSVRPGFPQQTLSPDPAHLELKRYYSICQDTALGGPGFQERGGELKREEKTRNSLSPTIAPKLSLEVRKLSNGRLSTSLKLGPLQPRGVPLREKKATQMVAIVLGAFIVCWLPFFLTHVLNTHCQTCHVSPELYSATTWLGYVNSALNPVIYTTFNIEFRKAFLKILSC

| SMILES | inhibition at 1 µM (dopaminergic D3 receptor [1]) [%] | inhibition at 1 µM (dopaminergic D2 receptor [2]) [%] | activation at 1 µM [3] [%] | inhibition at 1 µM [3] [%] | σ [%] (sigma σ receptor) | inhibition at 1 µM (muscarinic M3 receptor) [%] | inhibition at 1 µM [4] [%] | activation at 1 µM [5] [%] | inhibition at 1 µM [5] [%] | activation at 1 µM (dopaminergic D2 receptor [6]) [%] | inhibition at 1 µM (dopaminergic D2 receptor [6]) [%] | activation at 1 µM (adrenergic α2C receptor [7]) [%] | inhibition at 1 µM (adrenergic α2C receptor [7]) [%] | α1 [%] (adrenergic α1 receptor) | inhibition at 1 µM [8] [%] | inhibition at 1 µM (adrenergic α2C receptor [9]) [%] | inhibition at 1 µM [10] [%] | inhibition at 1 µM (dopaminergic D3 receptor [11]) [%] | activation at 1 µM (dopaminergic D3 receptor [11]) [%] | activation at 1 µM [12] [%] | other results |
| --- | --- | --- | --- | --- | --- | --- | --- | --- | --- | --- | --- | --- | --- | --- | --- | --- | --- | --- | --- | --- | --- |
| O=S(=O)(NCCCCN1CCC(c2noc3cc(F)ccc23)CC1)c1ccc(Br)cc1 [Compound 298, 4-Bromo-N-[4-[4-(6-fluoro-1,2-benzoxazol-3-yl)piperidin-1-yl]butyl]benzenesulphonamide] | 98 | 99 | -3 | 98 | 68 | 19 | 35 | 30 | 90 | 12 | 84 | -4 | 39 | 103 | 90 | 98 | 100 | 99 | -8 | 0 | inhibition at 1 µM [12]: 89%; activation at 1 µM [13]: -1%; inhibition at 1 µM [13]: 99%; inhibition at 1 µM [14]: 98% |
| O=S(=O)(NCCCCN1CCC(c2noc3cc(F)ccc23)CC1)c1csc2ccccc12 [Compound 313, N-[4-[4-(6-Fluoro-1,2-benzoxazol-3-yl)piperidin-1-yl]butyl]benzothiophene-3-sulphonamide] | 99 | 101 | -2 | 100 | 83 | 25 | 23 | 4 | 47 | -5 | 85 | -11 | 46 | 100 | 90 | 100 | 100 | 81 | 8 | -3 | inhibition at 1 µM [12]: 91%; activation at 1 µM [13]: -3%; inhibition at 1 µM [13]: 98%; inhibition at 1 µM [14]: 100% |
| O=S(=O)(NCCCCN1CCC(c2noc3cc(F)ccc23)CC1)c1cc2ccc(Cl)cc2s1 [Compound 314, 6-Chloro-N-[4-[4-(6-fluoro-1,2-benzoxazol-3-yl)piperidin-1-yl]butyl]benzothiophene-2-sulphonamide] | 100 | 99 | -3 | 95 | 49 | 13 | 50 | 5 | 50 | 9 | 86 | -2 | 30 | 100 | 93 | 108 | 99 | 110 | -30 | 0 | inhibition at 1 µM [12]: 91%; activation at 1 µM [13]: -2%; inhibition at 1 µM [13]: 99%; inhibition at 1 µM [14]: 100% |
| N#Cc1cccc(S(=O)(=O)NCCCN2CCC(c3noc4cc(F)ccc34)CC2)c1 [Compound 338, 3-cyano-N-[3-[4-(6-fluoro-1,2-benzoxazol-3-yl)piperidin-1-yl]propyl]benzenesulphonamide] | 100 | 98 | -3 | 100 | 72 | 1 | 21 | 1 | 51 | 3 | 88 | -3 | 9 | 99 | 95 | 104 | 98 | 109 | -10 | 0 | inhibition at 1 µM [12]: 88%; activation at 1 µM [13]: -1%; inhibition at 1 µM [13]: 100%; inhibition at 1 µM [14]: 94% |
| O=S(=O)(NCCCN1CCC(c2noc3cc(F)ccc23)CC1)c1ccc2cn[nH]c2c1 [Compound 352, N-[3-[4-(6-Fluoro-1,2-benzoxazol-3-yl)piperidin-1-yl]propyl]-1H-indazole-6-sulphonamide] | 97 | 100 | -2 | 102 | 76 | 12 | 56 | 1 | 60 | 12 | 88 | -16 | 16 | 99 | 97 | 100 | 100 | 113 | -18 | -2 | inhibition at 1 µM [12]: 75%; activation at 1 µM [13]: -1%; inhibition at 1 µM [13]: 100%; inhibition at 1 µM [14]: 95% |
